Key:
Assay type in all cases: in vivo
Ceratitis capitata flies [1] = test: Insecticidal action in the dark: fly survival after porphyrin bait; settings: dark, fed 24 h, survival 12 h after change to porphyrin-free bait
Description: For comparison, data obtained with two conventional porphyrins (as those described in WO 97/29637) offered to the insects for 24 h at a 3.0 and 8.1 μmolar concentration in the same bait are also shown. In all cases, the survival was determined 12 hours after changing food supply from a porphyrin-containing to a porphyrin-free bait. […] These flies were then used in the various experimental sessions. […] The number of survivors was evaluated 12 h after switching from administration of a porphyrin-containing bait to a porphyrin-free bait. In none of the experiments was mortality or any apparent toxic effect observed in control flies (flies not fed with porphyrin, see survival at 0 μM porphyrin concentration).

[2] = test system: Ceratitis capitata (fruit fly); test: Release of alkylated porphyrin from flies after feeding with bait interrupted; settings: C. capitata, 1.25 μM porphyrin in the bait
Description: (§1) An appropriate number of flies (50 flies per each experiment) was caged in 115×55×70 mm Plexiglas cages with several holes (ø=0.5 mm) and starved for 36 h. Then, depending on the protocol to be adopted for each specific experiment, the flies were fed with the bait (10% sucrose and 1% autolysed yeast in neutral aqueous solution), which was either porphyrin-free or added with a predetermined concentration of the porphyrin. These flies were then used in the various experimental sessions.
(§2) At predetermined times, the flies were sacrificed by freezing; the dead flies were then homogenized with a Polytron in 10 ml of a 2% aqueous solution of sodium dodecylsulphate (SDS). The suspension was centrifuged for 10 min at 2,000 rpm, the pellet was discarded and known aliquots of the supernatant were diluted by means of a chloroform/methanol binary mixture (1/2, v/v). The porphyrin concentration was measured by reading the fluorescence emitted at wavelengths above 630 nm and interpolating the emission intensity with a calibration plot obtained with known amounts of the porphyrin. The results were expressed as nanomoles of porphyrin recovered per fly.

[3] = test system: Stomoxis calcitrans (stable fly); test: as above; settings: S. calcitrans, 1.25 μM porphyrin in the bait
Description: as §1, §2

[4] = test system: Bactrocera oleae (olive fly); test: as above; settings: B. oleae, 1.25 μM porphyrin in the bait
Description: as §1, §2

[5] = test system: Ceratitis capitata (fruit fly); test: Uptake of alkylated porphyrins by flies fed porphyrin-containing bait; settings: C. capitata
Description: (§3) Porphyrins: • a) meso[tri(N-methyl-pyridyl), mono(N-dodecyl-pyridyl)]porphine (abbr.: C12) • b) meso[tri(N-methyl-pyridyl), mono(N-tetradecyl-pyridyl)]porphine (abbr.: C14) • c) meso[tri(N-methyl-pyridyl), mono(N-octadecyl-pyridyl)]porphine (abbr.: C18) Bait: Aqueous solution containing 10% sucrose and 1% autolysed yeast Flies: • a) Ceratitis capitata (fruit fly) age: 1 week; weight: 5-6 mg • b) Bactrocera oleae (olive fly) age: 10 days; weight: 4-4.5 mg • c) Stomoxis calcitrans (stable fly) age: 10 days; weight: 12 mg Irradiation: • a) High pressure halogen lamp, equipped with infrared and UV filters, emission 360-850 nm, operated at intensities in the 760-2,000 μE s^−1m^−2 range • b) Sunlight, mid June at Padua latitude, average intensity of […] μE s^−1m^−2 with minimum and maximum values of 950 and, respectively, 1,380 μE s^−1m^−2
as §1, §2

Ceratitis capitata flies [6] = test: Photoinsecticidal action: fly survival after bait and sunlight irradiation; settings: 3 μM in bait, 12 h after feeding, survival 1 h after irradiation
Description: as §3
The survival was evaluated 1 h after the end of irradiation.
as §1

Bactrocera oleae flies = test: Insecticidal action in the dark: fly survival after porphyrin bait; settings: fed 24 h, survival 12 h after change to porphyrin-free bait
Description: (§4) These flies were then used in the various experimental sessions. […] The number of survivors was evaluated 12 h after switching from administration of a porphyrin-containing bait to a porphyrin-free bait. In none of the experiments was mortality or any apparent toxic effect observed in control flies (flies not fed with porphyrin, see survival at 0 μM porphyrin concentration).

[7] = test system: Stomoxis calcitrans flies; test: as above; settings: fed 24 h, survival 12 h after change to porphyrin-free bait
Description: as §4

Ceratitis capitata flies [8] = test: Photoinsecticidal action: fly survival after bait and visible light irradiation (artificial lamp); settings: survival 10 h after irradiation
Description: as §3
The irradiations were performed for 1 h, then the flies were kept in dim light for monitoring the survival. Control flies were irradiated under identical conditions after feeding with a porphyrin-free bait.
The irradiations were performed for 1 h at a fluence-rate of 1220 μE s^−1m^−2. The survival was evaluated 10 h after the end of irradiation. […] The porphyrins are abbreviated as following: HP: haematoporphyrin; C1: meso-tetra(N-methyl-pyridyl)porphine.
The survival was evaluated 10 h after the end of irradiation.
as §1, with “sessions. […]” for “sessions.”

Compound: CCCCCCCCCCCC[n+]1ccc(-c2c3nc(c(-c4cc[n+](C)cc4)c4ccc([nH]4)c(-c4cc[n+](C)cc4)c4nc(c(-c5cc[n+](C)cc5)c5ccc2[nH]5)C=C4)C=C3)cc1 [C12, meso[tri(N-methyl-pyridyl), mono(N-dodecyl-pyridyl)]porphine]
- Survival (% of control untreated flies) (Ceratitis capitata flies [1]; 0.75 μM in bait): 100 % of control untreated flies
- Survival (% of control untreated flies) (Ceratitis capitata flies [1]; 1.25 μM in bait): 73 % of control untreated flies
- Survival (% of control untreated flies) (Ceratitis capitata flies [1]; 2.10 μM in bait): 58 % of control untreated flies
- Survival (% of control untreated flies) (Ceratitis capitata flies [1]; 3.00 μM in bait): 42 % of control untreated flies
- Survival (% of control untreated flies) (Ceratitis capitata flies [1]; 5.00 μM in bait): 38 % of control untreated flies
- Survival (% of control untreated flies) (Ceratitis capitata flies [1]; 8.10 μM in bait): 35 % of control untreated flies
- Recoveries (nmoles of porphyrin per fly), release ([2]; 12 h after feeding interrupted): 2.6 nmoles of porphyrin per fly
- Recoveries (nmoles of porphyrin per fly), release ([2]; 24 h after feeding interrupted): 1.1 nmoles of porphyrin per fly
- Recoveries (nmoles of porphyrin per fly), release ([2]; 48 h after feeding interrupted): 0.7 nmoles of porphyrin per fly
- Recoveries (nmoles of porphyrin per fly), release ([3]; 12 h after feeding interrupted): 2.8 nmoles of porphyrin per fly
- Recoveries (nmoles of porphyrin per fly), release ([3]; 24 h after feeding interrupted): 2.0 nmoles of porphyrin per fly
- Recoveries (nmoles of porphyrin per fly), release ([3]; 48 h after feeding interrupted): 0.9 nmoles of porphyrin per fly
- Recoveries (nmoles of porphyrin per fly), release ([4]; 12 h after feeding interrupted): 2.5 nmoles of porphyrin per fly
- Recoveries (nmoles of porphyrin per fly), release ([4]; 24 h after feeding interrupted): 1.4 nmoles of porphyrin per fly
- Recoveries (nmoles of porphyrin per fly), release ([4]; 48 h after feeding interrupted): 0.8 nmoles of porphyrin per fly
- Recoveries (nmoles of porphyrin per fly) ([5]; exposure time to bait 3 h, porphyrin in bait 1.24 μM): 1.2 nmoles of porphyrin per fly
- Recoveries (nmoles of porphyrin per fly) ([5]; exposure time to bait 12 h, porphyrin in bait 1.24 μM): 3.9 nmoles of porphyrin per fly
- Recoveries (nmoles of porphyrin per fly) ([5]; exposure time to bait 24 h, porphyrin in bait 1.24 μM): 4.1 nmoles of porphyrin per fly
- Recoveries (nmoles of porphyrin per fly) ([5]; porphyrin concentration in bait 0.75 (μmoles), feeding 24 h): 2.9 nmoles of porphyrin per fly
- Recoveries (nmoles of porphyrin per fly) ([5]; porphyrin concentration in bait 1.25 (μmoles), feeding 24 h): 4.1 nmoles of porphyrin per fly
- Recoveries (nmoles of porphyrin per fly) ([5]; porphyrin concentration in bait 2.10 (μmoles), feeding 24 h): 7.3 nmoles of porphyrin per fly
- Recoveries (nmoles of porphyrin per fly) ([5]; porphyrin concentration in bait 3.50 (μmoles), feeding 24 h): 9.1 nmoles of porphyrin per fly
- Recoveries (nmoles of porphyrin per fly) ([5]; porphyrin concentration in bait 6.00 (μmoles), feeding 24 h): 12.5 nmoles of porphyrin per fly
- Survival (% of control untreated flies) (Ceratitis capitata flies [6]; sunlight (average 1150 μE s^−1m^−2) 15 min): 33 % of control untreated flies
- Survival (% of control untreated flies) (Ceratitis capitata flies [6]; sunlight (average 1150 μE s^−1m^−2) 30 min): 17 % of control untreated flies
- Survival (% of control untreated flies) (Ceratitis capitata flies [6]; sunlight (average 1150 μE s^−1m^−2) 45 min): 10 % of control untreated flies
- Survival (% of control untreated flies) (Ceratitis capitata flies [6]; sunlight (average 1150 μE s^−1m^−2) 60 min): 2 % of control untreated flies
- Survival (% of control untreated flies) (Bactrocera oleae flies; 0.75 μM in bait): 100 % of control untreated flies
- Survival (% of control untreated flies) (Bactrocera oleae flies; 1.25 μM in bait): 100 % of control untreated flies
- Survival (% of control untreated flies) (Bactrocera oleae flies; 2.10 μM in bait): 85 % of control untreated flies
- Survival (% of control untreated flies) (Bactrocera oleae flies; 3.00 μM in bait): 72 % of control untreated flies
- Survival (% of control untreated flies) (Bactrocera oleae flies; 5.00 μM in bait): 58 % of control untreated flies
- Survival (% of control untreated flies) (Bactrocera oleae flies; 8.10 μM in bait): 51 % of control untreated flies
- Survival (% of control untreated flies) ([7]; 0.75 μM in bait): 100 % of control untreated flies
- Survival (% of control untreated flies) ([7]; 1.25 μM in bait): 82 % of control untreated flies
- Survival (% of control untreated flies) ([7]; 2.10 μM in bait): 64 % of control untreated flies
- Survival (% of control untreated flies) ([7]; 3.00 μM in bait): 47 % of control untreated flies
- Survival (% of control untreated flies) ([7]; 5.00 μM in bait): 29 % of control untreated flies
- Survival (% of control untreated flies) ([7]; 8.10 μM in bait): 16 % of control untreated flies
- Survival (% of control untreated flies) (Ceratitis capitata flies [8]; 3 μM in bait 24 h, time interval feeding-irradiation 0 h, irradiation 1 h at 1220 μE s^−1m^−2): 4 % of control untreated flies
- Survival (% of control untreated flies) (Ceratitis capitata flies [8]; 3 μM in bait 24 h, time interval feeding-irradiation 12 h, irradiation 1 h at 1220 μE s^−1m^−2): 8 % of control untreated flies
- Survival (% of control untreated flies) (Ceratitis capitata flies [8]; 3 μM in bait 24 h, time interval feeding-irradiation 24 h, irradiation 1 h at 1220 μE s^−1m^−2): 23 % of control untreated flies
- Survival (% of control untreated flies) (Ceratitis capitata flies [8]; 3 μM in bait 24 h, time interval feeding-irradiation 48 h, irradiation 1 h at 1220 μE s^−1m^−2): 37 % of control untreated flies
- Survival (% of control untreated flies) (Ceratitis capitata flies [8]; 3 μM in bait, fluence-rate 760 μE s^−1m^−2, irradiated 24 h after feeding (title)): 13 % of control untreated flies
- Survival (% of control untreated flies) (Ceratitis capitata flies [8]; 3 μM in bait, fluence-rate 1220 μE s^−1m^−2, irradiated 24 h after feeding (title)): 4 % of control untreated flies
- Survival (% of control untreated flies) (Ceratitis capitata flies [8]; 3 μM in bait, fluence-rate 1500 μE s^−1m^−2, irradiated 24 h after feeding (title)): 2 % of control untreated flies
- Survival (% of control untreated flies) (Ceratitis capitata flies [8]; 3 μM in bait, fluence-rate 2000 μE s^−1m^−2, irradiated 24 h after feeding (title)): 0 % of control untreated flies

Source: patent US7384927B2, “Alkylated porphyrins as pesticides acting both in the presence and absence of light” (priority 2003, dated 2008)
